Data published in patent US11058668B2 (EIDOS THERAPEUTICS, INC., priority 2018, dated 2021).
“And” between values parts separate entries of the source, which are not always exact repeats. Identical values can stand only once.

What was measured:
TTR [1] = biological target: T1, TTR (Canis lupus familiaris, UniProt A0A8I3NFK0); test: Single oral dose PK-PD in dogs, TTR occupancy by FPE; format: in vivo, beagle dog; details: 5 or 20 mg/kg AG10 HCl single oral dose
T1 construct: from tissue; host or cells: serum of orally dosed beagle dogs
Procedure: FPE assay for binding TTR in buffer and human or dog serum. […] The FPE probe is a thioester TTR ligand that is not fluorescent by itself, however upon binding to the T4 binding site of TTR it covalently modifies lysine 15 (K15), creating a fluorescent conjugate. Ligands that bind to the T4 site of TTR will decrease FPE probe binding as observed by lower fluorescence. The FPE assay was also adapted for use with dog serum. FPE with TTR in buffer: An aliquot of 98 μL of TTR in PBS (pH 7.4, final concentration: 2.5 μM) was mixed with 1 μL of test compounds (2.5 μM) and 1 μL of FPE probe (0.18 mM stock solution in DMSO: final concentration: 1.8 μM). The change in fluorescence (λex=328 nm and λem=384 nm) were monitored using a microplate spectrophotometer reader (SpectraMax M5) for 6 hr at rt. […] The change in fluorescence (λex=328 nm and λem=384 nm) were monitored using a microplate spectrophotometer reader (SpectraMax M5) for 6 hr at rt.
Blood was collected and analyzed pre-dose and at 2, 4, 6, 8, 12 and 24 hr post-dose.

TTR [2] = test: Phase 2 study in ATTR-CM patients, serum TTR concentration (ARUP Prealbumin assay); format: in vivo, human; details: all genotypes, ATTR-CM patients
Procedure: Screening and randomization will be followed by a 28-day blinded, placebo-controlled treatment period. Approximately 45 subjects are planned to enroll in the Phase 2 study.
An ARUP Prealbumin assay was also used to analyze TTR blood serum concentration in the MAD cohorts tested. ARUP analyzes samples for prealbumin using the prealbumin reagent kit provided by Roche Diagnostics and run on the Roche Diagnostics c702 module. Lowest reportable limit is 3 mg/dL.
The phase 2 clinical study was performed essentially as described in Example 3. A total of 49 patents were included instead of 45: 16 receiving 400 mg bid; 16 receiving 800 mg bid; and 17 receiving placebo.
TTR stabilization was measured ex vivo using the FPE and Western blot assays described at the beginning of the examples section. TTR stabilization was measured in vivo by monitoring TTR serum concentrations in trial participants.

TTR [3] = biological target: T2, TTR (Homo sapiens, UniProt P02766); details: Tafamidis Phase 2 (FDA CDER background package); diflunisal observational study (Hanson 2018); cited from earlier work
[4] = pKa values of stabilizers; format: physicochemical; details: carboxylic acid group
TTR [5] = biological target: T2, TTR; test: Isothermal titration calorimetry (ITC) with TTR in buffer; details: 25° C.; for Kd: PBS pH 7.4, single-site binding model
Procedure: (§1) Isothermal Titration Calorimetry (ITC). Binding experiments were performed using MicroCal PEAQ-ITC at 25° C. […] 19 injections of ligand (2.0 μL each) were injected into the ITC cell (at 25° C.) to the point that TTR was fully saturated with ligand. Calorimetric data were plotted and fitted using the standard single-site binding model.

purified human TTRwt = purified human TTRwt (Homo sapiens, UniProt P02766); test: Modified FPE assay with purified TTR plus other serum proteins (selectivity); format: binding; details: purified TTR 5 μM
Procedure: The percentage of FPE probe binding to TTR in the presence of serum proteins measured after 3 hr of incubation was used to calculate % TTR occupancy.

[6] = biological target: T3, human serum albumin (HSA) (Homo sapiens, UniProt P02768); test: Gel filtration and dialysis binding to human serum albumin; design: albumin from human serum; Sigma Aldrich, catalog no.: A3782; purchased Sigma Aldrich A3782; host or cells: human serum; details: 30 μM compound, 600 μM albumin
Procedure: The concentration of HSA (i.e. concentration at time zero) was also determined using NanoDrop™ (based on calibration curves of known HAS concentrations). […] The concentration of test compounds in these fractions (i.e. conc. at time zero) was evaluated using HPLC (based on calibration curves of known concentration of test compounds). 500 μL of each HSA/test compound samples was then added to a Slide-A-Lyzer Dialysis Cassette G2 (3.5K MWCO, Thermo Scientific, catalog no. P187722). The dialysis Cassettes were placed in 100 ml of assay buffer and stirred at room temperature. After 24 hr, the samples were removed from dialysis cassette and the volume was measured. The concentration of HAS and test compounds were determined using NanoDrop™ and HPLC as described above.

[7] = biological target: T3, human serum albumin (HSA); test: ITC against human serum albumin; details: ITC titration against human serum albumin
Procedure: as §1

TTR in human serum = biological target: T4, TTR in human serum (Homo sapiens, UniProt P02766); test: FPE assay in human serum; format: binding; details: stabilizers 10 μM, human serum TTR 5 μM; FPE
T4 construct: pooled human serum (prepared from human male AB plasma, Sigma; catalog no; H4522; TTR concentration 5 μM); tissue Sigma H4522; host or cells: pooled human serum from human male AB plasma
Excerpt: FPE assay for binding TTR in buffer and human or dog serum. […] The FPE probe is a thioester TTR ligand that is not fluorescent by itself, however upon binding to the T4 binding site of TTR it covalently modifies lysine 15 (K15), creating a fluorescent conjugate. Ligands that bind to the T4 site of TTR will decrease FPE probe binding as observed by lower fluorescence. […] The change in fluorescence (λex=328 nm and λem=384 nm) were monitored using a microplate spectrophotometer reader (SpectraMax M5) for 6 hr at rt. […] The change in fluorescence (λex=328 nm and λem=384 nm) were monitored using a microplate spectrophotometer reader (SpectraMax M5) for 6 hr at rt.

T3 sequence (P02768 25-609): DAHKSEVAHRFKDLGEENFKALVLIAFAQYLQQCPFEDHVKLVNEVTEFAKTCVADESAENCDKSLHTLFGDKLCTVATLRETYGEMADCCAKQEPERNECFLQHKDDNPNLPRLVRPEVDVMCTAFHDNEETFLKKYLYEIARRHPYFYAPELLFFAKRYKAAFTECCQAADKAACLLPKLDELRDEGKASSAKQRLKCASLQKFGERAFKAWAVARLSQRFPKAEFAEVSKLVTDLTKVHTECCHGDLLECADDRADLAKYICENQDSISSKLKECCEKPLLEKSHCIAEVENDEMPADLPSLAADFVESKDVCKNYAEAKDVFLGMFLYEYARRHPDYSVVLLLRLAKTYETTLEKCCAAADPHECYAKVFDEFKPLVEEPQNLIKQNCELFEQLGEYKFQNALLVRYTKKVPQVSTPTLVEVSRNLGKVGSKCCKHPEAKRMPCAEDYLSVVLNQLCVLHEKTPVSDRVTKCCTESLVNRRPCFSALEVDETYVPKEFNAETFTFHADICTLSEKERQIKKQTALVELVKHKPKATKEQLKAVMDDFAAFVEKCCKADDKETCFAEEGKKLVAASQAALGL

SMILES | TΔS (TTR [5]) | ΔH (TTR [5]) | ΔG (TTR [5]) | Kd (TTR [5]) | also measured
Cc1n[nH]c(C)c1CCCOc1cc(C(=O)O)ccc1F.Cl [AG10 HCl] |  |  |  |  | TTR occupancy, dose comparison (TTR [1]): enhanced TTR occupancy in the 20 mg/kg vs. 5 mg/kg dose groups; Blood Serum TTR Concentration, Average Change (baseline to day 28) (TTR [2]; 400 mg b.i.d.): 36%; Blood Serum TTR Concentration, Average Change (baseline to day 28) (TTR [2]; 800 mg b.i.d.): 50%
O=C(O)c1cc(-c2ccc(F)cc2F)ccc1O [Diflunisal, reference compound] | 0.34 kcal/mol | -8.38 kcal/mol |  |  | change in serum TTR levels (TTR [3]): increased serum TTR levels; pKa [4]: 2.94
O=C(O)c1ccc2nc(-c3cc(Cl)cc(Cl)c3)oc2c1 [Tafamidis, 2-(3,5-dichlorophenyl)-1,3-benzoxazole-6-carboxylic acid, reference compound] | 6.39 kcal/mol | -5.0 kcal/mol |  |  | change in serum TTR levels (TTR [3]): increased serum TTR levels; TTR occupancy (purified human TTRwt; in the absence of albumin): 68.2±0.1%; TTR occupancy (purified human TTRwt; in the presence of albumin (600 μM)): 41.5±0.9%; pKa [4]: 3.73; concentration bound to HSA following dialysis vs buffer for 24 hr [6]: 18.8 ± 2.1 µM; concentration bound to albumin at time 0 (immediately after gel filtration) [6]: 24.1 ± 1.1 µM; ΔH (TTR [5]; listed as tafamidis): -5.00 kcal/mol and -5.0 kcal/mol; Kd [7]: 2300 nM

Second part, led by results:

TΔS (TTR [5]) | ΔH (TTR [5]) | ΔG (TTR [5]) | Kd (TTR [5]) | SMILES | also measured
-0.21 kcal/mol | -9.82 kcal/mol | -9.61 kcal/mol | 90 ± 14 nM | Cc1n[nH]c(C)c1CCCOc1cc(C(=O)O)ccc1I [compound 1, 3-(3-(3,5-dimethyl-1H-pyrazol-4-yl)propoxy)-4-iodobenzoic acid] | % TTR Occupancy in Serum (2:1 ratio) (TTR in human serum): 75.9 ± 3.1%
2.5 kcal/mol | -6.49 kcal/mol | -8.99 kcal/mol | 258 ± 17 nM | COC(=O)c1ccc(F)c(OCCCc2c(C)n[nH]c2C)c1 [compound 2, Methyl 3-(3-(3,5-dimethyl-1H-pyrazol-4-yl)propoxy)-4-fluorobenzoate] | 
4.27 kcal/mol | -4.73 kcal/mol | -9.0 kcal/mol | 251 ± 12 nM | Cc1nn(C)c(C)c1CCCOc1cc(C(=O)O)ccc1F [compound 3, 4-fluoro-3-(3-(1,3,5-trimethyl-1H-pyrazol-4-yl)propoxy)benzoic acid] | 
6.0 kcal/mol | -2.1 kcal/mol | -8.1 kcal/mol | 1250 ± 79 nM | CCc1n[nH]c(CC)c1CCCOc1cc(C(=O)O)ccc1F [compound 4, 3-(3-(3,5-diethyl-1H-pyrazol-4-yl)propoxy)-4-fluorobenzoic acid] | 
